Assays:
luciferase mRNA = assay: Detection of reporter gene (luciferase mRNA) expression in mice in vivo; design: species or system BALB/c female mice; conditions: LNP-delivered luciferase mRNA, quadriceps muscle injection, IVIS 24 h after injection; dose (5 or 14 μg mRNA) not given
Procedure: The prepared LNP-encapsulated mRNA solution was diluted with PBS buffer to obtain the solution for injection. BALB/c female mice at about 20 g were injected with injection solution at the quadriceps muscle site of mice with an insulin syringe, and each mouse was injected with 50 μL. Two doses were designed: one dose of “5 μg mRNA per 50 μL of injection solution” and the other dose of “14 μg mRNA per 50 μL of injection solution”. BALB/c female mice at about 20 g are injected with PBS buffer at the quadriceps muscle site of mice with an insulin syringe, and each mouse was injected with 50 μL.
After the mice were injected for 24 h, in vivo expression of Luciferase was detected with Perkinelmer's IVIS. The substrate was D-luciferin Sodium salt (GOLDBIO, LUCNA-1G), which was formulated into a concentration of 15 mg/mL with normal saline, filtered and sterilized with a 0.22 μm filter membrane, and stored at −20° C. in aliquots protected from light. Before imaging, each mouse at about 20 g was intraperitoneally injected with 200 μL of substrate solution for 10-20 minutes, and then was anesthetized with isoflurane gas and placed prone on the imaging plate to detect the fluorescence of the animal in vivo, and the results are shown in Table 2.

SD rat = assay: Liver injury toxicity analysis of lipid molecules in SD rat (serum ALT and AST); type: in vivo; conditions: SD rats, 3 mg/kg mRNA encoding Luciferase via tail vein, serum 24 hours after injection; compared with SM102 (FIGS. 4A, 4B)
Excerpt: In order to further investigate the hepatic injury toxicity of exemplary compounds, we analyze the effect of the compounds of the present invention on serum alanine aminotransferase (ALT) and […] (AST) levels. The experimental 30 SD rats (15 females+15 males, purchased from Zhejiang Weitong Lihua Laboratory Animal Technology Co., Ltd.) were randomly divided into three groups, namely negative control group (PBS), SM102 group, and compound 2 group, each group of […]. According to body weight, each rat was injected with 3 mg/kg of mRNA encoding Luciferase through the tail vein, fasted overnight with supplying water, and whole blood was collected 24 hours after injection, and serum was isolated. The concentration of ALT and AST in the serum of each rat was detected with a fully automated biochemical analyzer, and the test results are shown in FIGS. 4A and 4B.

[1] = In vivo expression distribution analysis of delivered luciferase mRNA (RT-PCR in tissues); design: species or system C57BL/6J mice; conditions: delivered luciferase mRNA, single intramuscular injection 50 μg, 2 h-336 h, RT-PCR
Procedure: In order to investigate the distribution features of lipid-delivering mRNA in vivo, we analyzed the distribution features of the reporter luciferase mRNA of the compounds of the present invention in C57BL/6J mice after administration by a single intramuscular injection. The experimental 10 C57BL/6J mice were enrolled, male and female, each administered 50 μg, with SM102 as the control.
Animals in the negative control group were collected at 2 h and 336 h after administration, and animals in the test group were collected at 2 h, 6 h, 24 h, 48 h, 72 h, 120 h, 168 h, and 336 h after administration whole blood, bone marrow, liver, spleen, heart, kidney, inguinal lymph nodes, mesenteric lymph nodes, spleen, brain, stomach, small intestine, non-injection site muscle, injection site muscle tissue, etc. The RNA content in the samples at each time point was detected by RT-PCR, and the lower limit of quantification of the method was […] to reflect the distribution features in C57BL/6J mice.

BALB/c female mice = assay: Acute toxicity analysis of lipid molecules (cationic lipid LNP) in BALB/c female mice; conditions: blood 24 h after injection, Ave(SD)

CCCCCCCCCCCOC(=O)CCCCCN(CCCCCCO)CCCCCCCC(=O)OC(CCCCCCCC)CCCCCCCC [Example 2]
Average fluorescence intensity (luciferase mRNA): 1.144E+06 P/s/cm^2/sr | Elevation effect on serum ALT and AST (SD rat): significantly lower than these of compound SM102 | Exposure in tissues and organs, from high to low [1]: injection site muscle, inguinal lymph nodes, whole blood, spleen, non-injection site muscle, bone marrow, heart, liver, mesenteric lymph nodes, kidney, small intestine and brain | Alanine aminotransferase (BALB/c female mice; high dose group, 150 μg LNP/pc): 41.54 U/L | Alkaline phosphatase (ALP) (BALB/c female mice; high dose group, 150 μg LNP/pc): 111.86 U/L | Aspartate aminotransferase (BALB/c female mice; high dose group, 150 μg LNP/pc): 124.48 U/L | Creatinine (BALB/c female mice; high dose group, 150 μg LNP/pc): 12.6 µmol/L | Total bilirubin (TBIL) (BALB/c female mice; high dose group, 150 μg LNP/pc): 1.25 | γ-Glutamyltransferase (GGT) (BALB/c female mice; high dose group, 150 μg LNP/pc): 0.20 (0.18) U/L | Alanine aminotransferase (BALB/c female mice; low dose group, 50 μg/pc): 35.32 (2.51) U/L | Alkaline phosphatase (ALP) (BALB/c female mice; low dose group, 50 μg/pc): 113.3 U/L | Aspartate aminotransferase (BALB/c female mice; low dose group, 50 μg/pc): 111.74 U/L | Creatinine (BALB/c female mice; low dose group, 50 μg/pc): 12.6 µmol/L | Total bilirubin (TBIL) (BALB/c female mice; low dose group, 50 μg/pc): 1.22 (0.20) | γ-Glutamyltransferase (GGT) (BALB/c female mice; low dose group, 50 μg/pc): 0.40 (0.37) U/L

— patent US12312292B2, “Long chain alkyl esteramine lipid compound, preparation method therefor and application thereof in nucleic acid delivery” (RinuaGene Biotechnology Co., Ltd., priority 2022, dated 2025)
